{
  "source": "ChEMBL document CHEMBL1201862",
  "about": "“PubChem BioAssay data set” (2004)",
  "key": {"[1]": {"biological_target": "T1, Kappa-type opioid receptor (Homo sapiens, UniProt P41145)", "T1 sequence (P41145 whole entry)": "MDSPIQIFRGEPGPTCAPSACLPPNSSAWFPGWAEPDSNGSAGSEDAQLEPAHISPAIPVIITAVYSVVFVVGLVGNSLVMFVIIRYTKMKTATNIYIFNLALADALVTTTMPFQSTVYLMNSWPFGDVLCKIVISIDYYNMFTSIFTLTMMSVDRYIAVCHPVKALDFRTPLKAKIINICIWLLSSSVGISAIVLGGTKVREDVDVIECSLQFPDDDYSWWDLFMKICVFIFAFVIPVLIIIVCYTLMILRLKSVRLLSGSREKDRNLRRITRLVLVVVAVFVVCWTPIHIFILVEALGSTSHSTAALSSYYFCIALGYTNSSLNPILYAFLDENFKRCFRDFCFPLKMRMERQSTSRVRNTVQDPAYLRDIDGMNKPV", "test": "SAR analysis of small molecule antagonists of the kappa opioid receptor via a luminescent beta-arrestin assay - Set 6. [Related pubchem assays (depositor defined):AID1777, AID1778, AID1785, AID1786, AID1966, AID2133, AID2136, AID2285]", "type": "functional"}, "[2]": {"biological_target": "Delta-type opioid receptor (Homo sapiens, UniProt P41143)", "test": "SAR Analysis of Antagonists of the DOR Receptor using an Image-Based Assay - Set 3. [Related pubchem assays (depositor defined):AID1777, AID1785]", "type": "functional"}, "Mu-type opioid receptor": {"biological_target": "Mu-type opioid receptor (Homo sapiens, UniProt P35372)", "test": "SAR Analysis of Antagonists of the MOR Receptor using an Image-Based Assay - Set 3. [Related pubchem assays (depositor defined):AID1777, AID1785, AID1786, AID1966, AID2133, AID2136, AID2284, AID2285, AID2420]", "type": "functional"}, "[3]": {"biological_target": "T1, Kappa-type opioid receptor", "test": "SAR analysis of small molecule antagonists of the kappa opioid receptor via a luminescent beta-arrestin assay - Set 3. [Related pubchem assays (depositor defined):AID1777, AID1778, AID1785, AID1786, AID1966, AID2133, AID2136, AID2285, AID2495]", "type": "functional"}, "[4]": {"biological_target": "T1, Kappa-type opioid receptor", "test": "SAR analysis of Antagonists of the Kappa Opioid Receptor (KOR) using an Image-Based Assay - Set 4. [Related pubchem assays (depositor defined):AID1777, AID1785]", "type": "functional"}, "Mucolipin-3": {"biological_target": "T2, Mucolipin-3 (Homo sapiens, UniProt Q8TDD5)", "T2 sequence (Q8TDD5 whole entry)": "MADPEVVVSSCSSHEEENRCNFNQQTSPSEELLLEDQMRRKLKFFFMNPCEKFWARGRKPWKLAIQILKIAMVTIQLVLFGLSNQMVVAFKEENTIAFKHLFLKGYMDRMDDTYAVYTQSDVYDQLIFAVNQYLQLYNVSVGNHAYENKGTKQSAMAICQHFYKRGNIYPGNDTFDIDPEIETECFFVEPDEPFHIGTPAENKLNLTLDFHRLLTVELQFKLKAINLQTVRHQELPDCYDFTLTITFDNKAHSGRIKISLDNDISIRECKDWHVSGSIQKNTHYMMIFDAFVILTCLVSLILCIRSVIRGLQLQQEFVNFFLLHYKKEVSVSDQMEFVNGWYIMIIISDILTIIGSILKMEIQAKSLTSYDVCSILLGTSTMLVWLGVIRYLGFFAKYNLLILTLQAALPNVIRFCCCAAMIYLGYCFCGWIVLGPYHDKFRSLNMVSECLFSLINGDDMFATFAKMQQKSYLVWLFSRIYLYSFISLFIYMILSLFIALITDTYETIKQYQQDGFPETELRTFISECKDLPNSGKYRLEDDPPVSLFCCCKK", "test": "Fluorescence counterscreen assay for […] agonists: dose response cell-based high-throughput screening assay to identify agonists of the transient receptor potential channel ML3 (TRPML3). [Related pubchem assays: 1424, 1448 ]", "type": "functional"}, "Ion channel NompC": {"biological_target": "Ion channel NompC (Danio rerio, UniProt Q7T1G6)", "test": "Dose response cell-based high-throughput screening assay for agonists of the transient receptor potential channel N1 (TRPN1). [Related pubchem assays (depositor defined):AID1424, AID1448]", "type": "functional"}, "[5]": {"biological_target": "G-protein coupled receptor 55 (Homo sapiens, UniProt Q9Y2T6)", "test": "SAR Analysis of Selective Antagonists of GPR55 using an Image-Based Assay - Set 3. [Related pubchem assays (depositor defined):AID2058, AID2079]", "type": "functional"}, "[6]": {"test": "A Cell Based Secondary Assay To Explore Cytotoxicity of Compounds that Sensitize Mycobacterium Tuberculosis to Beta-Lactam Antibiotics.", "type": "functional"}, "[7]": {"biological_target": "G-protein coupled receptor 35 (Homo sapiens, UniProt Q9HC97)", "sequence (Q9HC97 whole entry)": "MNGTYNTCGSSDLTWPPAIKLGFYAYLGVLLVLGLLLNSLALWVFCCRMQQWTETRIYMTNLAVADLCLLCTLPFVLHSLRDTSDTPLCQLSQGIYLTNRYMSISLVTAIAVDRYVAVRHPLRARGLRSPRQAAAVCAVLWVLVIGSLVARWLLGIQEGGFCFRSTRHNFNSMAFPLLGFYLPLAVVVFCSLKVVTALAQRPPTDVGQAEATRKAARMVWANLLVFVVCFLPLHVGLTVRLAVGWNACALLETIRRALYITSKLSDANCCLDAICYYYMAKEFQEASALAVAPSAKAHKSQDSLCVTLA", "test": "SAR analysis of Antagonists of the GPR35 Receptor using an Image-Based Assay - Set 5. [Related pubchem assays (depositor defined):AID2058, AID2079]", "type": "functional"}, "[8]": {"test": "reduction of Shn3 3'UTR-driven luciferase in osteoblasts – cell-based, Clone20 osteoblasts, firefly luciferase, cherry-picked, dose response (AID 624132)", "type": "functional"}, "[9]": {"test": "NIH-3T3 fibroblast cytotoxicity, dose response, cytotoxicity control, cell-based, fluorescence, Alamar Blue, secondary assay (AID 2327);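 also: NIH-3T3 mouse fibroblasts cultured with fluconazole at 8 µg/mL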", "type": "functional"}, "[10]": {"test": "non-specific 3'UTR reporter inhibition in Clone20-Shn3RL – cell-based, Renilla luciferase, cherry-picked, counter-screen for Shn3 inhibitor project, dose response (AID 624133)", "type": "functional"}, "INS1": {"tested_on": "INS1", "test": "INS-1E survival protection against cytokine death – cell-based, luminescence, retest, dose response (AID 449756);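 also: cell death triggered by IL-1 beta plus TNF-alpha plus IFN-gamma mixture; protective hits raise ATP signal compared with cytokine alone wells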", "type": "functional", "details": "Rattus norvegicus"}, "[11]": {"test": "fluconazole-exposed Candida albicans growth modulators – fluorescence, retest, confirmation (AID 2467)", "type": "functional, cell-based"}, "[12]": {"test": "loss of viability in HepG2 cells – cell-based, CellTiter-Glo, cherry-picked, cytotoxicity control for Shn3 inhibitor project, dose response (AID 624134)", "type": "functional"}, "[13]": {"biological_target": "E3 ubiquitin-protein ligase Mdm2/Protein Mdm4 (Homo sapiens, UniProt O15151+Q00987)", "sequence (Q00987 whole entry)": "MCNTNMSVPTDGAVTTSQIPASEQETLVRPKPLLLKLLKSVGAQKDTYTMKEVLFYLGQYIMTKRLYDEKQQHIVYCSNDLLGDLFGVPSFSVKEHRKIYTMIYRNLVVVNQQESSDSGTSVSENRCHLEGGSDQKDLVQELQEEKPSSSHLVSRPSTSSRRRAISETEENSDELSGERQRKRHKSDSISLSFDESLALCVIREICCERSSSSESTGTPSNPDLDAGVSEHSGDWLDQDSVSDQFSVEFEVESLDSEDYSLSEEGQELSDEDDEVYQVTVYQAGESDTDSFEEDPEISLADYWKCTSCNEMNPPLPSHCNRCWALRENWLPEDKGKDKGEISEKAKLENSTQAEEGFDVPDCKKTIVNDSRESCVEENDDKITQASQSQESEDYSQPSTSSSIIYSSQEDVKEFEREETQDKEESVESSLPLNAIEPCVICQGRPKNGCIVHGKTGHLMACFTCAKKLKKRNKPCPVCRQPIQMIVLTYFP", "sequence (O15151 whole entry)": "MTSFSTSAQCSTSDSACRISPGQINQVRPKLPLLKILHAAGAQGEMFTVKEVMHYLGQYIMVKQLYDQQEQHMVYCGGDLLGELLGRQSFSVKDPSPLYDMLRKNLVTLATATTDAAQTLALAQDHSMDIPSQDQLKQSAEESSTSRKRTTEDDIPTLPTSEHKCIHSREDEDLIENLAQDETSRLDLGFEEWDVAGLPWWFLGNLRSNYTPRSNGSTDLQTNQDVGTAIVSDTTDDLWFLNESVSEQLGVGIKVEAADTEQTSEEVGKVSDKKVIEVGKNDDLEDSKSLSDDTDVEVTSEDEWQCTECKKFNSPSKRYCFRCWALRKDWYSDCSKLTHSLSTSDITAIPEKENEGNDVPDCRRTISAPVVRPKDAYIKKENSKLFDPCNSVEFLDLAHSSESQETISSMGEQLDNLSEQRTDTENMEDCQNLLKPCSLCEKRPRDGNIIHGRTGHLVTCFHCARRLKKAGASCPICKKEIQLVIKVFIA", "test": "disruption of Mdm2/MdmX protein binding – luminescence detection, dose response (AID 504593)", "type": "functional"}, "Fatty acid synthase [14]": {"biological_target": "T3, Fatty acid synthase (Homo sapiens, UniProt P49327)", "T3 sequence (P49327 whole entry)": "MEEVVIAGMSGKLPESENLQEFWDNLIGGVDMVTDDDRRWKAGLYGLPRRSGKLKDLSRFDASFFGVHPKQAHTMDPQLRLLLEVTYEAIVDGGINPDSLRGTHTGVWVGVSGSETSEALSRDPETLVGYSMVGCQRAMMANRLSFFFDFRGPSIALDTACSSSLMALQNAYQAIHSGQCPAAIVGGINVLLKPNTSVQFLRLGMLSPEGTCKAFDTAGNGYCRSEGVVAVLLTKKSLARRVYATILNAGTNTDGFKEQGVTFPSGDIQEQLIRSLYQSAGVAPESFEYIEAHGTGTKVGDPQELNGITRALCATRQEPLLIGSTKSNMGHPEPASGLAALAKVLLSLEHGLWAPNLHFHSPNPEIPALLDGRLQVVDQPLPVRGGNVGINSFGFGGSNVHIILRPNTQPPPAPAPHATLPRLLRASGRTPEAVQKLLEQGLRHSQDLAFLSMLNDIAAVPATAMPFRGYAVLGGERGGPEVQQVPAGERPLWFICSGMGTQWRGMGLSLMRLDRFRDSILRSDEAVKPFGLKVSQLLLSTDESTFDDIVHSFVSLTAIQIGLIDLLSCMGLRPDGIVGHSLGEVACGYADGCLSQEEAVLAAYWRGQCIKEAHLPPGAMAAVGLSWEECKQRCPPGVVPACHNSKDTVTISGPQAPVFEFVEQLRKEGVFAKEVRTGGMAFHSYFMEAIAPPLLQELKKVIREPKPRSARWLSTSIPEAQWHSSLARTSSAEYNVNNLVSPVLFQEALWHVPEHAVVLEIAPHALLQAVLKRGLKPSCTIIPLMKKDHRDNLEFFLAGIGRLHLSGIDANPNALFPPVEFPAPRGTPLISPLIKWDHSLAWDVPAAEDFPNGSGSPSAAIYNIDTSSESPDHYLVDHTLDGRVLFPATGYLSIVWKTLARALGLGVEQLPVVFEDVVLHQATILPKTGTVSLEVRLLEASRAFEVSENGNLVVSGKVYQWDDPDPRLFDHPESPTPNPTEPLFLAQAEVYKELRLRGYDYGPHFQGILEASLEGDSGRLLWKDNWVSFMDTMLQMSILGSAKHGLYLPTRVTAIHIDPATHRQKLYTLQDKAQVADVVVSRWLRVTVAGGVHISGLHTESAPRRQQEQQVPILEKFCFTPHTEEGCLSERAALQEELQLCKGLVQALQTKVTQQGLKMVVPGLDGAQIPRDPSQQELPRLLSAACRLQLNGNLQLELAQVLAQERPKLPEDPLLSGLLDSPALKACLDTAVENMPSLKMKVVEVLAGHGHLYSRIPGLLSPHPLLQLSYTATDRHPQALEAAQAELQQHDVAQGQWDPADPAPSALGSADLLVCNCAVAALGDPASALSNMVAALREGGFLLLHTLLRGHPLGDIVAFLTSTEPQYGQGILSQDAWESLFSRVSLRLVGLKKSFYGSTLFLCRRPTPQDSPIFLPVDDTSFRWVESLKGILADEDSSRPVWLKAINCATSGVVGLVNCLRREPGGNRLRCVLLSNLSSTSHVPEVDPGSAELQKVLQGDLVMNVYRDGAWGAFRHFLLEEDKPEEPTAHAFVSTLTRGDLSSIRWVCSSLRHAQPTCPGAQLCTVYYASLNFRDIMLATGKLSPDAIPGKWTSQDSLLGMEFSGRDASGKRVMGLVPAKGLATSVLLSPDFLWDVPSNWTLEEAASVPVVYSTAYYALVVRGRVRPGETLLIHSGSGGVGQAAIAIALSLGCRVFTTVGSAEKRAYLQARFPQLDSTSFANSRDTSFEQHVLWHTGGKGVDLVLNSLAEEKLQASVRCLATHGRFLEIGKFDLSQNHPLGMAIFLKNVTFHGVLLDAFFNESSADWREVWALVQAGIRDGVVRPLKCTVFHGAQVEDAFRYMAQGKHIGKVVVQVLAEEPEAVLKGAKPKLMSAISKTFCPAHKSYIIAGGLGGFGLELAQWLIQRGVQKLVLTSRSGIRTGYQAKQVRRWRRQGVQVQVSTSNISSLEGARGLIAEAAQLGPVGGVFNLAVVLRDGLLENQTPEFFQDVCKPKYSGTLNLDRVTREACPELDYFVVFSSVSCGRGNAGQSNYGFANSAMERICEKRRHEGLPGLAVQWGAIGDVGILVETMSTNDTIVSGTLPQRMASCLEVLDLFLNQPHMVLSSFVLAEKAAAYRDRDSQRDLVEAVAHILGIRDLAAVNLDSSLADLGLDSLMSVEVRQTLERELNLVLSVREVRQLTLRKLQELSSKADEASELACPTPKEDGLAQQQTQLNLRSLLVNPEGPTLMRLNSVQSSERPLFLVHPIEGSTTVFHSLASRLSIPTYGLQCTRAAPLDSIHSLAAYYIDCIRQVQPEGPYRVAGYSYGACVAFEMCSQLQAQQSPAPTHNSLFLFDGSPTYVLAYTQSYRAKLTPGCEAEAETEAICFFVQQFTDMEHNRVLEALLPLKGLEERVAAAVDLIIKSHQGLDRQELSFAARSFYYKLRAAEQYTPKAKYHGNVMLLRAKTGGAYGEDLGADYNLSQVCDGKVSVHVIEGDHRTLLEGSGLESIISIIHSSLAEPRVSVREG", "test": "inhibition of human FAS-TE enzyme activity – biochemical, endpoint fluorescence intensity, uHTS hits, dose response (AID 624327);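 also: fluorescence from hydrolysis of an O-methyl fluorescein acyl ester substrate by the enzyme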", "type": "functional"}, "Fatty acid synthase [15]": {"biological_target": "T3, Fatty acid synthase", "test": "inhibition of human FAS-TE enzyme activity – biochemical, kinetic fluorescence intensity, dose response (AID 624326);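 also: rate of fluorescence rise from hydrolysis of a fluorogenic O-methyl fluorescein ester substrate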", "type": "functional"}, "Cytochrome P450 3A4": {"biological_target": "Cytochrome P450 3A4 (Homo sapiens, UniProt P08684)", "sequence (P08684 whole entry)": "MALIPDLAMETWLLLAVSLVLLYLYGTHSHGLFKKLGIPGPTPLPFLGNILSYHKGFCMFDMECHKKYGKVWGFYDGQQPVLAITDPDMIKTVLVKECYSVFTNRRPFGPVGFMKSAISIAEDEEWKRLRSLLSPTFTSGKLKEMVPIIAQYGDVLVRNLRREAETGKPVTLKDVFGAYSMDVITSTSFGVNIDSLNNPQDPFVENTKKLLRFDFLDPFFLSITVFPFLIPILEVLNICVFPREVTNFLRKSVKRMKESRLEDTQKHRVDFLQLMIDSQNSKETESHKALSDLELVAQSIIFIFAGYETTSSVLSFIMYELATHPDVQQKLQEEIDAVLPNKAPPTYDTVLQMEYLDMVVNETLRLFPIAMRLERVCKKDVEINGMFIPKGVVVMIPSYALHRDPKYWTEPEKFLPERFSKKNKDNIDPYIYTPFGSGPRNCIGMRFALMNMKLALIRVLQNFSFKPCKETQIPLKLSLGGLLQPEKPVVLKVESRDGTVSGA"}, "[16]": {"biological_target": "DNA damage-inducible transcript 3 protein (Mus musculus, UniProt P35639)", "sequence (P35639 whole entry)": "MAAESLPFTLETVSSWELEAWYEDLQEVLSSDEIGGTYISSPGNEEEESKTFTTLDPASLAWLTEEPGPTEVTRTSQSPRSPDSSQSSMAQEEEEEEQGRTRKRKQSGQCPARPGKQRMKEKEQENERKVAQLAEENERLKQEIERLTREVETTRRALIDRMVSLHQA", "type": "functional, Cricetulus griseus"}, "X-box-binding protein 1": {"biological_target": "X-box-binding protein 1 (Homo sapiens, UniProt P17861)", "type": "functional, Cricetulus griseus"}, "Coagulation factor XII": {"biological_target": "T4, Coagulation factor XII (Homo sapiens, UniProt P00748)", "T4 sequence (P00748 whole entry)": "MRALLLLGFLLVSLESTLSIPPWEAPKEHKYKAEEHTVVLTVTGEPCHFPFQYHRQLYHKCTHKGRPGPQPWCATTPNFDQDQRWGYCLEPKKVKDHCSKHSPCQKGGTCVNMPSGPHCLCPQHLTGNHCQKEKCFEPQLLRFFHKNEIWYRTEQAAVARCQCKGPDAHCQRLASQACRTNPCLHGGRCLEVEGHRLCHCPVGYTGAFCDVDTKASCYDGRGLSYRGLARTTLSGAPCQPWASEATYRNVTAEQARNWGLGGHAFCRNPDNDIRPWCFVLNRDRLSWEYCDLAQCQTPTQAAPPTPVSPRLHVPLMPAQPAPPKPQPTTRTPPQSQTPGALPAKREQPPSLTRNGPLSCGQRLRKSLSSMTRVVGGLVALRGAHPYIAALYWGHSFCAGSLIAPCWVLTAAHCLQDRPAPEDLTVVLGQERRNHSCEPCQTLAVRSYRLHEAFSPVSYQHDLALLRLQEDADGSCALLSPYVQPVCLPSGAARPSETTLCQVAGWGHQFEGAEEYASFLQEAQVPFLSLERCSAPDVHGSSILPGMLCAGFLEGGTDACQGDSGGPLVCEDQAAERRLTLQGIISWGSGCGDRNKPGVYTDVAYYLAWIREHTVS", "type": "functional"}},
  "note": "Calls of active or inactive are those of the source.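 For Absolute IC50 (XBP1) in this document: confirmatory dose-response counter-screen serving a CHOP assay.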",
  "data": [
    {"compound": "O=C(Cn1c(=O)c2cccn2c2cccnc21)NCCCN1CCN(c2ccc(Cl)cc2)CC1", "values": [
      {"measurement": "IC50", "setting": "[1]", "value": "6.93 µM (active)"},
      {"measurement": "IC50", "setting": "[2]", "value": "> 32 µM (inactive)"},
      {"measurement": "IC50", "setting": "Mu-type opioid receptor", "value": "> 32 µM (inactive)"},
      {"measurement": "IC50", "setting": "[3]", "value": "3.44 µM (active)"},
      {"measurement": "IC50", "setting": "[4]", "value": "0.096 µM (active)"}
    ]},
    {"compound": "N#C/C(=C(/O)C(Cl)(Cl)Cl)c1nc2ccccc2[nH]1", "values": [
      {"measurement": "EC50", "setting": "Mucolipin-3", "value": "> 29.9 µM (not active)"},
      {"measurement": "EC50", "setting": "Ion channel NompC", "value": "> 29.9 µM (inactive)"}
    ]},
    {"compound": "COC(=O)c1cnn(-c2ccccc2)c1/C=N/NC(=S)Nc1ccc(Cl)cc1", "values": [
      {"measurement": "IC50", "setting": "[5]", "value": "> 32 µM (inactive)"},
      {"measurement": "CC50", "setting": "[6]", "value": "> 40 µM (active)"},
      {"measurement": "IC50", "setting": "[7]", "value": "0.319 µM (active)"}
    ]},
    {"compound": "CCOc1cc(N2CCOCC2)c(OCC)cc1NC(=O)COc1cccc2cccnc12", "values": [
      {"measurement": "AC50", "setting": "[8]", "value": "2.41 µM (active)"},
      {"measurement": "EC50", "setting": "[9]", "value": "> 150 µM (inactive)"},
      {"measurement": "AC50", "setting": "[10]", "value": "5.04 µM (active)"},
      {"measurement": "AC50", "setting": "INS1", "value": "3.83 µM (active)"},
      {"measurement": "EC50", "setting": "[11]", "value": "> 38 µM (not active)"},
      {"measurement": "AC50", "setting": "[12]", "value": "8.92 µM (active)"},
      {"measurement": "IC50", "setting": "[13]", "value": "4.99 µM (active)"}
    ]},
    {"compound": "Cc1cc(C)c(C)c(S(=O)(=O)ON2C(=O)c3ccccc3C2=O)c1C", "values": [
      {"measurement": "IC50", "setting": "Fatty acid synthase [14]", "value": "0.61 µM (active)"},
      {"measurement": "IC50", "setting": "Fatty acid synthase [15]", "value": "0.417 µM (active)"},
      {"measurement": "AC50", "setting": "Cytochrome P450 3A4", "value": "39.8 µM (inconclusive)"},
      {"measurement": "Absolute IC50 (CHOP)", "setting": "[16]", "value": 10, "unit": "µM"},
      {"measurement": "Absolute IC50 (XBP1)", "setting": "X-box-binding protein 1", "value": 10, "unit": "µM"},
      {"measurement": "EC50", "setting": "[9]", "value": "3.15 µM (inconclusive)"},
      {"measurement": "EC50", "setting": "[11]", "value": "4.78 µM (active)"},
      {"measurement": "IC50", "setting": "Coagulation factor XII", "value": "12.9 µM (active)"}
    ]}
  ]
}
